The results in this text go back to US10004701B2, “Methods and compositions for treating infection” (UNIVERSITY OF ROCHESTER, priority 2012, dated 2018).

Common to all, as to assay: AK assay 384-well format, Prestwick library screening
One experiment has as its system K. pneumoniae. The experiment is classed as cell-based, Klebsiella pneumoniae. As to conditions: Klebsiella pneumoniae, 3 h, 50 μM final drug concentration.
For experiment [1], the system named is S. aureus strain USA300-0114. The experiment is classed as cell-based, Staphylococcus aureus. Conditions: Staphylococcus aureus, USA300, 3 h, 50 μM final drug concentration.
For the next experiment, the system named is P. aeruginosa. The experiment is classed as cell-based, Pseudomonas aeruginosa. Conditions: Pseudomonas aeruginosa, 3 h, 50 μM final drug concentration.
The test system of experiment [2] is A. baumannii strain 98-37-09. The experiment is classed as cell-based, Acinetobacter baumannii. Conditions: Acinetobacter baumannii, 983709, 3 h, 50 μM final drug concentration.
Another experiment concerns E. cloacae. The format is cell-based, Enterobacter cloacae. Conditions: Enterobacter cloacae, 3 h, 50 μM final drug concentration.
For a further experiment, the system named is E. coli. The experiment is classed as cell-based, Escherichia coli. Conditions: Escherichia coli, 3 h, 50 μM final drug concentration.
The next experiment concerns E. faecium. The format is cell-based, Enterococcus faecium. Conditions: Enterococcus faecium, 3 h, 50 μM final drug concentration.
Where [3] appears, read: planktonic, cutoff for positive-scoring molecules 3-fold increase, read-out: AK-based Prestwick Library Screening Results, K. pneumoniae (fold increase in extracellular AK activity).
[4] abbreviates: planktonic, cutoff for positive-scoring molecules 3-fold increase, read-out: AK-based Prestwick Library Screening Results, S. aureus (fold increase in extracellular AK activity).
The mark [5] stands for this setting: planktonic, cutoff for positive-scoring molecules 3-fold increase, read-out: AK-based Prestwick Library Screening Results, P. aeruginosa (fold increase in extracellular AK activity).
[6] abbreviates: planktonic, cutoff for positive-scoring molecules 3-fold increase, read-out: AK-based Prestwick Library Screening Results, A. baumannii (fold increase in extracellular AK activity).
Setting [7] is: planktonic, cutoff for positive-scoring molecules 3-fold increase, read-out: AK-based Prestwick Library Screening Results, E. cloacae (fold increase in extracellular AK activity).
Setting [8] is: planktonic, cutoff for positive-scoring molecules 3-fold increase, read-out: AK-based Prestwick Library Screening Results, E. coli (fold increase in extracellular AK activity).
[9] abbreviates: planktonic, cutoff for positive-scoring molecules 3-fold increase, read-out: AK-based Prestwick Library Screening Results, E. faecium (fold increase in extracellular AK activity).
[10] abbreviates: planktonic K. pneumoniae, cutoff for positive-scoring molecules 3-fold increase, read-out: AK-based Prestwick Library Screening Results, K. pneumoniae (increase in extracellular AK activity).
Setting [11] is: planktonic S. aureus, cutoff for positive-scoring molecules 3-fold increase, read-out: AK-based Prestwick Library Screening Results, S. aureus (increase in extracellular AK activity).
Where [12] appears, read: planktonic P. aeruginosa, cutoff for positive-scoring molecules 3-fold increase, read-out: AK-based Prestwick Library Screening Results, P. aeruginosa (increase in extracellular AK activity).
Setting [13] is: planktonic A. baumannii, cutoff for positive-scoring molecules 3-fold increase, read-out: AK-based Prestwick Library Screening Results, A. baumannii (increase in extracellular AK activity).
Where [14] appears, read: planktonic E. cloacae, cutoff for positive-scoring molecules 3-fold increase, read-out: AK-based Prestwick Library Screening Results, E. cloacae (increase in extracellular AK activity).
The mark [15] stands for this setting: planktonic E. coli, cutoff for positive-scoring molecules 3-fold increase, read-out: AK-based Prestwick Library Screening Results, E. coli (increase in extracellular AK activity).
[16] abbreviates: planktonic E. faecium, cutoff for positive-scoring molecules 3-fold increase, read-out: AK-based Prestwick Library Screening Results, E. faecium (increase in extracellular AK activity).
Setting [17] is: cutoff for positive-scoring molecules 3-fold increase, read-out: AK-based Prestwick Library Screening Results, K. pneumoniae (fold increase in extracellular AK activity).
Setting [18] is: cutoff for positive-scoring molecules 3-fold increase, read-out: AK-based Prestwick Library Screening Results, S. aureus (fold increase in extracellular AK activity).
[19] abbreviates: cutoff for positive-scoring molecules 3-fold increase, read-out: AK-based Prestwick Library Screening Results, P. aeruginosa (fold increase in extracellular AK activity).
Setting [20] is: cutoff for positive-scoring molecules 3-fold increase, read-out: AK-based Prestwick Library Screening Results, A. baumannii (fold increase in extracellular AK activity).
Setting [21] is: cutoff for positive-scoring molecules 3-fold increase, read-out: AK-based Prestwick Library Screening Results, E. cloacae (fold increase in extracellular AK activity).
Setting [22] is: cutoff for positive-scoring molecules 3-fold increase, read-out: AK-based Prestwick Library Screening Results, E. coli (fold increase in extracellular AK activity).
[23] abbreviates: cutoff for positive-scoring molecules 3-fold increase, read-out: AK-based Prestwick Library Screening Results, E. faecium (fold increase in extracellular AK activity).

Molecules are shown by their SMILES. Structures can show the parent of a compound that is named as a salt. Where two headings read alike, the source gives them in different places. Where a SMILES comes first, the peptide text is derived from it. Bridges are numbered along the chain shown (N, C = ends). [ ]: non-standard residue; d: D form. The star is where a group is joined. Ileψ(thiazoline)Cys = CC[C@H](C)[C@H](N)C1=N[C@H](C(=O)*)CS1; dOrn = NCCC[C@@H](N)C(=O)O

In the case of `CC1(C)S[C@@H]2[C@H](NC(=O)[C@H](NC(=O)N3CCNC3=O)c3ccccc3)C(=O)N2[C@H]1C(=O)O` [Azlocillin sodium salt], the fold induction at 50 µM in the experiment with K. pneumoniae (setting [3]) is 0.7; in experiment [1] (setting [4]) it was 0.4; in the experiment with P. aeruginosa (setting [5]), 9.7; in experiment [2] (setting [6]), 2.1; with E. cloacae (setting [7]) it was 1; with E. coli (setting [8]), 12.3. For the same compound, the fold induction at 50 µM in the experiment with E. faecium (setting [9]) stood at 0.9.

For `C[C@H]1[C@H](NC(=O)/C(=N\OC(C)(C)C(=O)O)c2csc(N)n2)C(=O)N1S(=O)(=O)O` [Aztreonam], the fold induction at 50 µM in the experiment with K. pneumoniae (384-well format, cutoff for positive-scoring molecules 3-fold increase, read-out: AK-based Prestwick Library Screening Results, K. pneumoniae (increase in extracellular AK activity)) came out at 2.6; in experiment [1] (384-well format, cutoff for positive-scoring molecules 3-fold increase, read-out: AK-based Prestwick Library Screening Results, S. aureus (increase in extracellular AK activity)), 0.6; in the experiment with P. aeruginosa (384-well format, cutoff for positive-scoring molecules 3-fold increase, read-out: AK-based Prestwick Library Screening Results, P. aeruginosa (increase in extracellular AK activity)) it was 9.1; in experiment [2] (384-well format, cutoff for positive-scoring molecules 3-fold increase, read-out: AK-based Prestwick Library Screening Results, A. baumannii (increase in extracellular AK activity)), 5.4; with E. cloacae (384-well format, cutoff for positive-scoring molecules 3-fold increase, read-out: AK-based Prestwick Library Screening Results, E. cloacae (increase in extracellular AK activity)), 18.4; in the experiment with E. coli (384-well format, cutoff for positive-scoring molecules 3-fold increase, read-out: AK-based Prestwick Library Screening Results, E. coli (increase in extracellular AK activity)), 15.9. The fold induction at 50 µM in the experiment with E. faecium (384-well format, cutoff for positive-scoring molecules 3-fold increase, read-out: AK-based Prestwick Library Screening Results, E. faecium (increase in extracellular AK activity)) is 1.

As for `CCOC(=O)OC(C)OC(=O)[C@@H]1N2C(=O)[C@@H](NC(=O)[C@H](N)c3ccccc3)[C@H]2SC1(C)C` (stereo partly shown) [Bacampicillin hydrochloride], the fold induction at 50 µM with K. pneumoniae (setting [10]) worked out at 0.6; in experiment [1] (setting [11]), 0.5; in the experiment on P. aeruginosa (setting [12]), 0.6; in experiment [2] (setting [13]) it was 1.3; in the experiment on E. cloacae (setting [14]) it was 0.6; in the experiment with E. coli (setting [15]), 11.9. Also, the fold induction at 50 µM in the experiment on E. faecium (setting [16]) stood at 1.1.

Regarding `CC[C@H](C)[C@H](N)C1=N[C@H](C(=O)N[C@@H](CC(C)C)C(=O)N[C@H](CCC(=O)O)C(=O)N[C@H](C(=O)N[C@H]2CCCCNC(=O)[C@H](CC(N)=O)NC(=O)[C@@H](CC(=O)O)NC(=O)[C@H](Cc3cnc[nH]3)NC(=O)[C@@H](Cc3ccccc3)NC(=O)[C@H]([C@@H](C)CC)NC(=O)[C@@H](CCCN)NC2=O)[C@@H](C)CC)CS1` [Bacitracin] ({Ileψ(thiazoline)Cys}-L[dE]IK[dOrn]I[dF]H[dD]N; lactam 4-C), the fold induction at 50 µM in the experiment on K. pneumoniae (setting [3]) turned out to be 0.8; in experiment [1] (setting [4]) it was 0.4; in the experiment on P. aeruginosa (setting [5]) it was 0.8; in experiment [2] (setting [6]) it was 1.1; in the experiment on E. cloacae (setting [7]), 1.2; with E. coli (setting [8]), 1. In addition, the fold induction at 50 µM in the experiment on E. faecium (setting [9]) was 1.3.

With `O=C(O)CCNC(=O)c1ccc(/N=N/c2ccc(O)c(C(=O)O)c2)cc1` [Balsalazide Sodium], the fold induction at 50 µM came out at 0.7 with K. pneumoniae (setting [3]); 0.4 in experiment [1] (setting [4]); 0.5 in the experiment with P. aeruginosa (setting [5]); 0.5 in experiment [2] (setting [6]); 0.4 in the experiment with E. cloacae (setting [7]); 0.5 in the experiment on E. coli (setting [8]). The fold induction at 50 µM in the experiment on E. faecium (setting [9]) was determined as 0.9.

As to `CN(C)C(=O)Oc1cc(OC(=O)N(C)C)cc(C(O)CNC(C)(C)C)c1` (stereo not shown) [Bambuterol hydrochloride], the fold induction at 50 µM in the experiment on K. pneumoniae (setting [10]) is 0.9; in experiment [1] (setting [11]), 1.2; with P. aeruginosa (setting [12]), 1.2; in experiment [2] (setting [13]) it was 1; with E. cloacae (setting [14]), 1.2; in the experiment with E. coli (setting [15]), 1.3. Further, the fold induction at 50 µM in the experiment with E. faecium (setting [16]) was 1.1.

`CCC(=O)OCC(=O)[C@@]1(OC(=O)CC)[C@@H](C)C[C@H]2[C@@H]3CCC4=CC(=O)C=C[C@]4(C)[C@@]3(Cl)[C@@H](O)C[C@@]21C` [Beclomethasone dipropionate]: the fold induction at 50 µM with K. pneumoniae (setting [17]) came to 0.9; in experiment [1] (setting [18]), 0.5; in the experiment with P. aeruginosa (setting [19]), 1; in experiment [2] (setting [20]), 1; with E. cloacae (setting [21]) it was 1.5; in the experiment on E. coli (setting [22]), 1.1. For the same compound, in the experiment with E. faecium (setting [23]), the fold induction at 50 µM amounted to 1.

Regarding `CCC1(C)CC(=O)NC(=O)C1` [Bemegride], the fold induction at 50 µM in the experiment with K. pneumoniae (planktonic, […], read-out: AK-based Prestwick Library Screening Results, K. pneumoniae (fold increase in extracellular AK activity)) worked out at 0.6; in experiment [1] (planktonic, […], read-out: AK-based Prestwick Library Screening Results, S. aureus (fold increase in extracellular AK activity)), 0.7; in the experiment with P. aeruginosa (planktonic, […], read-out: AK-based Prestwick Library Screening Results, P. aeruginosa (fold increase in extracellular AK activity)), 0.6; in experiment [2] (planktonic, […], read-out: AK-based Prestwick Library Screening Results, A. baumannii (fold increase in extracellular AK activity)), 0.7; in the experiment on E. cloacae (planktonic, […], read-out: AK-based Prestwick Library Screening Results, E. cloacae (fold increase in extracellular AK activity)), 0.6; in the experiment with E. coli (planktonic, […], read-out: AK-based Prestwick Library Screening Results, E. coli (fold increase in extracellular AK activity)) it was 0.6. The fold induction at 50 µM with E. faecium (planktonic, […], read-out: AK-based Prestwick Library Screening Results, E. faecium (fold increase in extracellular AK activity)) worked out at 0.9.

In the case of `NS(=O)(=O)c1cc2c(cc1C(F)(F)F)NC(Cc1ccccc1)NS2(=O)=O` (stereo not shown) [Bendroflumethiazide], the fold induction at 50 µM was 1.1 in the experiment with K. pneumoniae (setting [17]); 1.3 in experiment [1] (setting [18]); 1.1 in the experiment on P. aeruginosa (setting [19]); 1.3 in experiment [2] (setting [20]); 1.5 with E. cloacae (setting [21]); 1.3 with E. coli (setting [22]). For the same compound, the fold induction at 50 µM in the experiment on E. faecium (setting [23]) was found to be 1.2.

As for `CC(Cc1cccc(C(F)(F)F)c1)NCCOC(=O)c1ccccc1` (stereo not shown) [Benfluorex hydrochloride], the fold induction at 50 µM in the experiment on K. pneumoniae (setting [10]) was 1.1; in experiment [1] (setting [11]), 1.2; in the experiment with P. aeruginosa (setting [12]), 1.1; in experiment [2] (setting [13]) it was 1; with E. cloacae (setting [14]), 1.4; in the experiment on E. coli (setting [15]) it was 1.4. The fold induction at 50 µM in the experiment with E. faecium (setting [16]) came to 0.9.
